# Data published in US6215002A, “Pyrrolopyrrolone derivatives as inhibitors of neutrophil elastase” (priority 1996, dated 2001).
# Where a name gives a salt, the structure may show the parent alone.
# Target: T1, human neutrophil elastase (Homo sapiens, UniProt P08246)
# T1 sequence (P08246 30-267): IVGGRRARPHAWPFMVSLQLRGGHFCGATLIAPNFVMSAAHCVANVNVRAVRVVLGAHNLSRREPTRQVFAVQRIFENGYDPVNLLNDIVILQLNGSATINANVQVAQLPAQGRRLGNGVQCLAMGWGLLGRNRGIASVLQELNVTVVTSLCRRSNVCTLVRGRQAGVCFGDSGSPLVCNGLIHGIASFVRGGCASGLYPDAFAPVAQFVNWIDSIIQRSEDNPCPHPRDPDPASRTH
# Assay: In vitro assay of human neutrophil elastase (HNE)
# Assay type: biochemical
# Conditions: 118 nM purified human neutrophil elastase, pH 8.6, 15 min incubation at 30° C., MeO-succinyl-alanyl-alanyl-prolyl-valyl-p-nitroanilide substrate; read-out: HNE IC50
# Outline: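 Residual activity was taken as the 10 min rate of absorbance rise at 405 nm after adding 0.6 mM MeO-succinyl-AAPV-p-nitroanilide. Curve fitting of activity against concentration gave IC50.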
row,IC50,SMILES
1,87 nM,"CCC[C@H]1C(=O)N(S(C)(=O)=O)[C@H]2CCN(S(=O)(=O)c3ccc(C(F)(F)F)cc3)[C@H]12 (relative stereo) [Example 216, rel-(3R,3aR,6aS)-1-Methanesulfonyl-3-propyl-4-(4-trifluoromethyl-benzenesulfonyl)-hexahydro-pyrrolo[3,2-b]pyrrol-2-one]"
2,40 nM,"CCC[C@H]1C(=O)N(S(C)(=O)=O)[C@H]2CCN(S(=O)(=O)c3ccc(S(C)(=O)=O)cc3)[C@H]12 (relative stereo) [Example 217, rel-(3R,3aR,6aS)-1-Methanesulfonyl-4-(4-methanesulfonyl-benzenesulfonyl)-3-propyl-hexahydro-pyrrolo[3,2-b]pyrrol-2-one]"
3,26 nM,"CCC[C@H]1C(=O)N(S(C)(=O)=O)[C@H]2CCN(S(=O)(=O)c3ccc(C#N)cc3)[C@H]12 (relative stereo) [Example 218, rel-4-(4-Methanesulfonyl-5-oxo-6R-propyl-hexahydro-(3aS,6aR)-pyrrolo[3,2-b]pyrrole-1-sulfonyl)-benzonitrile]"
4,10 nM,"CCC[C@H]1C(=O)N(S(C)(=O)=O)[C@H]2CCN(S(=O)(=O)c3ccccc3)[C@H]12 (relative stereo) [Example 219, rel-(3R,3aR,6aS)-4-Benzenesulfonyl-1-methanesulfonyl-3-propyl-hexahydro-pyrrolo[3,2-]pyrrol-2-one]"
5,12 nM,"CCC[C@H]1C(=O)N(S(C)(=O)=O)[C@H]2CCN(S(=O)(=O)c3ccc(OC)cc3)[C@H]12 (relative stereo) [Example 220, rel-(3R,3aR,6aS)-1-Methanesulfonyl-4-(4-methoxy-benzenesulfonyl)-3-propyl hexahydro-pyrrolo[3,2-b]pyrrol-2-one]"
6,27 nM,"CCC[C@H]1C(=O)N(S(C)(=O)=O)[C@H]2CCN(S(=O)(=O)c3ccc(N(C)C)cc3)[C@H]12 (relative stereo) [Example 221, rel-(3R, 3aR,6aS)-4-[4-Dimethylamino-benzenesufonyl)-1-methanesulfonyl-3-propyl-hexahydro-pyrrolo[3,2-b]pyrrol-2-one]"
7,107 nM,"CCC[C@H]1C(=O)N(S(C)(=O)=O)[C@H]2CCN(S(=O)(=O)c3cccc([N+](=O)[O-])c3)[C@H]12 (relative stereo) [Example 222, rel-(3R,3aR,6aS)-1-Methanesulfonyl-4-(3-nitro-benzenesulfonyl)-3-propyl-hexahydro-pyrrolo[3,2-b]pyrrol-2-one]"
8,62 nM,"CCC[C@H]1C(=O)N(S(C)(=O)=O)[C@H]2CCN(S(=O)(=O)c3cccc(C(F)(F)F)c3)[C@H]12 (relative stereo) [Example 223, rel-(3R,3aR,6aS)-1-Methanesulfonyl-3-propyl-4-(3-trifluoromethyl-benzenesulfonyl)-hexahydro-pyrrolo[3,2-b]pyrrol-2-one]"
9,410 nM,"CCC[C@H]1C(=O)N(S(C)(=O)=O)[C@H]2CCN(S(=O)(=O)c3cc(C(F)(F)F)cc(C(F)(F)F)c3)[C@H]12 (relative stereo) [Example 224, rel-(3R,3aR,6aS)-4-(3,5-Bis-trifluoromethyl-benzenesulfonyl)-1-methanesulfonyl-3-propyl-hexahydro-pyrrolo[3,2-b]pyrrol-2-one]"
10,120 nM,"CCC[C@H]1C(=O)N(S(C)(=O)=O)[C@H]2CCN(S(=O)(=O)c3ccccc3C(F)(F)F)[C@H]12 (relative stereo) [Example 225, rel-(3R,3aR,6aS)-1-Methanesulfonyl-3-propyl-4-(2-trifluoromethyl-benzenesulfonyl)-hexahydro-pyrrolo[3,2-b]pyrrol-2-one]"
11,87 nM,"CCC[C@H]1C(=O)N(S(C)(=O)=O)[C@H]2CCN(S(=O)(=O)c3ccccc3[N+](=O)[O-])[C@H]12 (relative stereo) [Example 226, rel-(3R,3aR,6aS)-1-Methanesulfonyl-4-(2-nitro-benzenesulfonyl)-3-propyl-hexahydro-pyrrolo[3,2-b]pyrrol-2-one]"
12,118 nM,"CC(C)[C@H]1C(=O)N(S(C)(=O)=O)[C@H]2CCN(S(=O)(=O)c3ccc(S(C)(=O)=O)cc3)[C@H]12 (relative stereo) [Example 227, rel-(3R,3aR,6aS)-3-Isopropyl-1-methanesulfonyl-4-(4-methanesulfonyl-benzenesulfonyl)-hexahydro-pyrrolo[3,2-b]pyrrol-2-one]"
13,68 nM,"CC(C)[C@H]1C(=O)N(S(C)(=O)=O)[C@H]2CCN(S(=O)(=O)c3ccc(C(F)(F)F)cc3)[C@H]12 (relative stereo) [Example 228, rel-(3R,3aR,6aS)-3-Isopropyl-1-methanesulfony]4-(4-trifluoromethyl-benzenesulfonyl)-hexahydro-pyrrolo[3,2-b]pyrrol-2-one]"
14,167 nM,"CC(C)[C@H]1C(=O)N(S(C)(=O)=O)[C@H]2CCN(S(=O)(=O)c3ccc([N+](=O)[O-])cc3)[C@H]12 (relative stereo) [Example 229, rel-(3R,3aR,6aS)-3-Isopropyl-1-methanesulfonyl-4-(4-nitro-benzenesulfonyl)-hexahydro-pyrrolo[3,2-b]pyrrol-2-one]"
15,35 nM,"CCC[C@H]1C(=O)N(S(C)(=O)=O)[C@H]2CCN(C(=O)c3ccco3)[C@H]12 (relative stereo) [Example 231, rel-(3R,3aR,6aS)-4-(Furan-2-carbonyl)-1-methanesulfonyl-3-propyl-hexahydro-pyrrolo[3,2-b]pyrrol-2-one]"
16,78 nM,"CCC[C@H]1C(=O)N(S(C)(=O)=O)[C@H]2CCN(C(=O)c3cccs3)[C@H]12 (relative stereo) [Example 232, rel-(3R,3aR,6aS)-1-Methanesulfonyl-3-propyl-4-(thiophene-2-carbonyl)-hexahydro-pyrrolo[3,2-b]pyrrol-2-one]"
17,62 nM,"CCC[C@H]1C(=O)N(S(C)(=O)=O)[C@H]2CCN(C(=O)c3ccccc3)[C@H]12 (relative stereo) [Example 233, rel-(3R,3aR,6aS)-4-Benzoyl-1-methanesulfonyl-3-propyl-hexahydro-pyrrolo[3,2-b]pyrrol-2-one]"
18,11 nM,"CCC[C@H]1C(=O)N(S(C)(=O)=O)[C@H]2CCN(S(=O)(=O)c3ccc(N)cc3)[C@H]12 (relative stereo) [Example 234, rel-(3R,3aR,6aS)-4-(4-Amino-benzenesulfonyl)-1-methanesulfonyl-3-propyl-hexahydro-pyrrolo[3,2-b]pyrrol-2-one]"
19,9 nM,"CCC[C@H]1C(=O)N(S(C)(=O)=O)[C@H]2CCN(S(=O)(=O)c3cccc(N)c3)[C@H]12 (relative stereo) [Example 235, rel-(3R,3aR,6aS)-4-(3-Amino-benzenesulfonyl)-1-methanesulfonyl-3-propyl-hexahydro-pyrrolo[3,2-b]pyrrol-2-one hydrochloride]"
20,18 nM,"CCC[C@H]1C(=O)N(S(C)(=O)=O)[C@H]2CCN(S(=O)(=O)c3ccccc3N)[C@H]12 (relative stereo) [Example 236, rel-(3R,3aR,6aS)-4-(2-Amino-benzenesulfonyl)-1-methanesulfonyl-3-propyl-hexahydro-pyrrolo[3,2-b]pyrrol-2-one]"

row,SMILES,IC50
1,"CCCCOc1ccc(S(=O)(=O)N2CC[C@H]3[C@H]2[C@@H](C(C)C)C(=O)N3S(C)(=O)=O)cc1 (relative stereo) [Example 230, rel-(3R,3aR,6aS)-4-(4-Butoxy-benzenesulfonyl)-3-isopropyl-1-methanesulfonyl-hexahydro-pyrrolo[3,2-b]pyrrol-2-one]",92 nM
